{"source": "patent US20050084612A1", "about": "“Surface coating for microfluidic devices that incorporate a biopolymer resistant moiety” (Caliper Life Sciences, Inc., priority 1999, published 2005)", "molecular_target": "T1, PTP1b (Homo sapiens, UniProt P18031)", "T1 sequence (P18031 1-435)": "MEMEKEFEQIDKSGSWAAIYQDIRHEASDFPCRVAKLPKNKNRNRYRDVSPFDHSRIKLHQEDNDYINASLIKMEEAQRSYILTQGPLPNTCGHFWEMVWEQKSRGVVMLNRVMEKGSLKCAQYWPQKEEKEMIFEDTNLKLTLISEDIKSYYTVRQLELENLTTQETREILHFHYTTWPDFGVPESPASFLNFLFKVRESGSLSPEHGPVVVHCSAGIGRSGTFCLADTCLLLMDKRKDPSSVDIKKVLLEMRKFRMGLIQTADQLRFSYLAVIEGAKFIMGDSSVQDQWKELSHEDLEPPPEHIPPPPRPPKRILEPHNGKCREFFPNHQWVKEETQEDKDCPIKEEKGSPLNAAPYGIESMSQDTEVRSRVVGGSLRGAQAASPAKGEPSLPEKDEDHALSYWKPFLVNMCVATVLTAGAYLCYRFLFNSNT", "assay": "PTP1b/diFMUP Km measurement by substrate titration in microfluidic device", "type": "biochemical", "conditions": "read-out: Km PTP1b/diFMUP; PEI-2 coated device, no NDSB, 50 mM HEPES+10 mM DTT", "description": "A 0.1 mg/ml PTP1b solution (12 μl) was placed in well 8. […] The fluorescence signal is detected at the end of the main channel.\nThe first 5 steps are substrate-only titrations using well 2 and well 3, with buffer flow from well 1. These provide measurements of the substrate background signal. The next 5 steps are the same substrate titration steps, but with enzyme flowing from well 8. The difference between these signals and the substrate-only background signal is product signal. […] The final concentration of the substrate was calculated from the known well concentration and the ratio of currents as programmed in the script. Plotting 1/(product signal per unit time) vs. 1/(substrate concentration) yields the Lineweaver-Burk plot with Km equal to slope divided by the y-intercept.\nThe final substrate concentration was calculated from Equation 4.", "data": [{"smiles": "Cc1cc(=O)oc2c(F)c(OP(=O)(O)O)c(F)cc12", "note": "[diFMUP, di-6-a-difluoro-4-methylumbelliferyl phosphate]", "values": [{"measurement": "Km", "value": 3, "unit": "µM"}]}]}
